Test: log P by HPLC on reversed-phase column (C18), EEC Directive 79/831 Annex V.A8
Assay type: physicochemical
Details: C18, 40° C., 0.1% aqueous formic acid and acetonitrile, gradient 10% to 90% acetonitrile
Method: Temperature: 40° C.; Mobile phases: 0.1% aqueous formic acid and acetonitrile; linear gradient from 10% acetonitrile to 90% acetonitrile.

| logP | SMILES |
| --- | --- |
| 3.14 | CC(c1cnc(Cl)c(Cl)c1)N(C(=O)c1cn(C)nc1C(F)(F)F)C1CC1 (stereo not shown) [Example 1] |
| 3.34 | CC(c1cnc(Cl)c(Cl)c1)N(C(=O)c1cn(C)cc1C(F)(F)F)C1CC1 (stereo not shown) [Example 2] |
| 3.7 | Cc1cc(C(=O)N(C2CC2)C(C)c2cnc(Cl)c(Cl)c2)c(C)o1 (stereo not shown) [Example 3] |
| 2.56 | Cc1nn(C)c(F)c1C(=O)N(C1CC1)C(C)c1cnc(Cl)c(Cl)c1 (stereo not shown) [Example 4] |
| 2.67 | CC(c1cnc(Cl)c(Cl)c1)N(C(=O)c1cn(C)nc1C(F)F)C1CC1 (stereo not shown) [Example 5] |
| 2.29 | COc1nn(C)cc1C(=O)N(C1CC1)C(C)c1cnc(Cl)c(Cl)c1 (stereo not shown) [Example 6] |
| 0.43 | Cc1ccc(CN(C(=O)c2c(C)nn(C)c2F)C2CC2)cn1 [Example 7] |
| 0.52 | Cc1ccc(CN(C(=O)c2cn(C)nc2C(F)F)C2CC2)cn1 [Example 8] |
| 2.28 | Cc1nn(C)c(F)c1C(=O)N(Cc1cnc(Cl)cc1Cl)C1CC1 [Example 9] |
| 2.46 | Cn1cc(C(=O)N(Cc2cnc(Cl)cc2Cl)C2CC2)c(C(F)F)n1 [Example 10] |
| 3.64 | Cc1nc(C(F)F)c(C(=O)N(C2CC2)C(C)c2ncc(Cl)cc2Cl)s1 (stereo not shown) [Example 20] |
| 3.21 | Cn1cc(C(=O)N(Cc2ncc(Cl)cc2Cl)C2CC2)c(C(F)(F)F)n1 [Example 21] |
| 2.54 | CCOc1nn(C)cc1C(=O)N(Cc1ncc(Cl)cc1Cl)C1CC1 [Example 22] |
| 3.76 | Cc1nc(C(F)(F)F)c(C(=O)N(Cc2ncc(Cl)cc2Cl)C2CC2)s1 [Example 23] |
| 3.42 | Cc1nc(C(F)F)c(C(=O)N(Cc2ncc(Cl)cc2Cl)C2CC2)s1 [Example 24] |
| 4.16 | O=C(c1sccc1I)N(Cc1ncc(Cl)cc1Cl)C1CC1 [Example 26] |
| 2.4 | Cc1nn(C)cc1C(=O)N(C1CC1)C(C)c1ncc(Cl)cc1Cl (stereo not shown) [Example 27] |
| 2.77 | Cc1nn(C)c(F)c1C(=O)N(C1CC1)C(C)c1ncc(Cl)cc1Cl (stereo not shown) [Example 28] |
| 2.56 | Cc1nn(C)c(F)c1C(=O)N(Cc1ncc(Cl)cc1Cl)C1CC1 [Example 29] |
| 3.9 | Cc1nn(C)c(F)c1C(=S)N(C1CC1)C(C)c1ncc(Cl)cc1Cl (stereo not shown) [Example 30] |
| 3.01 | CC(c1ncc(Cl)cc1Cl)N(C(=O)c1cn(C)nc1C(F)F)C1CC1 (stereo not shown) [Example 31] |
| 4.01 | CC(c1ncc(Cl)cc1Cl)N(C(=S)c1cn(C)nc1C(F)F)C1CC1 (stereo not shown) [Example 32] |
| 3.23 | CCc1nn(C)c(F)c1C(=O)N(C1CC1)C(C)c1ncc(Cl)cc1Cl (stereo not shown) [Example 33] |
| 2.21 | COc1nn(C)cc1C(=O)N(Cc1ncc(Cl)cc1Cl)C1CC1 [Example 34] |

| logP | SMILES |
| --- | --- |
| 2.39 | Cc1nn(C)c(F)c1C(=O)N(Cc1ccc(Oc2ccccc2)nc1)C1CC1 [Example 35] |
| 2.61 | Cn1cc(C(=O)N(Cc2ccc(Oc3ccccc3)nc2)C2CC2)c(C(F)F)n1 [Example 36] |
| 2.38 | CC(c1cnccn1)N(C(=O)c1ccsc1I)C1CC1 (stereo not shown) [Example 37] |
| 1.62 | CC(c1cnccn1)N(C(=O)c1ccco1)C1CC1 (stereo not shown) [Example 38] |
| 1.55 | Cc1nc(C(=O)N(C2CC2)C(C)c2cnccn2)c(C)o1 (stereo not shown) [Example 39] |
| 1.25 | Cc1nn(C)cc1C(=O)N(C1CC1)C(C)c1cnccn1 (stereo not shown) [Example 40] |
| 2.04 | Cc1ccoc1C(=O)N(C1CC1)C(C)c1cnccn1 (stereo not shown) [Example 41] |
| 1.47 | CC(c1cnccn1)N(C(=O)c1cn(C)nc1C(F)F)C1CC1 (stereo not shown) [Example 42] |
| 2.05 | CC(c1cnccn1)N(C(=S)c1cn(C)nc1C(F)F)C1CC1 (stereo not shown) [Example 43] |
| 1.37 | Cc1ncoc1C(=O)N(C1CC1)C(C)c1cnccn1 (stereo not shown) [Example 44] |
| 1.65 | Cc1cc(C(=O)N(C2CC2)C(C)c2cnccn2)no1 (stereo not shown) [Example 45] |
| 1.45 | Cc1cc(C(=O)N(C2CC2)C(C)c2cnccn2)nn1C (stereo not shown) [Example 46] |
| 2.39 | Cn1cc(C(=O)N(Cc2ccc(Cl)cn2)C2CC2)c(C(F)(F)F)n1 [Example 48] |
| 1.98 | CCOc1nn(C)cc1C(=O)N(Cc1ccc(Cl)cn1)C1CC1 [Example 49] |
| 3.36 | Cc1cc(C(=O)N(Cc2ccc(Cl)cn2)C2CC2)c(C(F)(F)F)o1 [Example 50] |
| 2.93 | Cc1nc(C(F)(F)F)c(C(=O)N(Cc2ccc(Cl)cn2)C2CC2)s1 [Example 51] |
| 2.54 | Cc1nc(C(F)F)c(C(=O)N(Cc2ccc(Cl)cn2)C2CC2)s1 [Example 52] |
| 3.17 | O=C(c1sccc1I)N(Cc1ccc(Cl)cn1)C1CC1 [Example 53] |
| 2.08 | Cn1cc(C(=O)N(Cc2ccc(Cl)cn2)C2CC2)c(C(F)F)n1 [Example 54] |
| 2.75 | COc1ccc(CN(C(=O)c2ccsc2I)C2CC2)cn1 [Example 55] |
| 1.97 | COc1ccc(CN(C(=O)c2ccco2)C2CC2)cn1 [Example 56] |
| 1.89 | COc1ccc(CN(C(=O)c2nc(C)oc2C)C2CC2)cn1 [Example 57] |
| 1.53 | COc1ccc(CN(C(=O)c2cn(C)nc2C)C2CC2)cn1 [Example 58] |
| 2.46 | COc1ccc(CN(C(=O)c2occc2C)C2CC2)cn1 [Example 59] |

| logP | SMILES |
| --- | --- |
| 1.64 | COc1ccc(CN(C(=O)c2c(C)nn(C)c2F)C2CC2)cn1 [Example 60] |
| 1.8 | COc1ccc(CN(C(=O)c2cn(C)nc2C(F)F)C2CC2)cn1 [Example 61] |
| 1.72 | COc1ccc(CN(C(=O)c2ocnc2C)C2CC2)cn1 [Example 62] |
| 2.08 | COc1ccc(CN(C(=O)c2cc(C)on2)C2CC2)cn1 [Example 63] |
| 1.74 | COc1ccc(CN(C(=O)c2cc(C)n(C)n2)C2CC2)cn1 [Example 64] |
| 2.82 | Cc1nc(C(F)(F)F)ccc1CN(C(=O)c1cn(C)nc1C(F)(F)F)C1CC1 [Example 85] |
| 2.51 | Cc1nc(C(F)(F)F)ccc1CN(C(=O)c1cn(C)nc1C(F)F)C1CC1 [Example 87] |
| 2.02 | COc1nn(C)cc1C(=O)N(Cc1ccc(C(F)(F)F)nc1C)C1CC1 [Example 88] |
| 3.21 | O=C(c1ccsc1I)N(Cc1c(Cl)cncc1Cl)C1CC1 [Example 97] |
| 2.18 | Cc1nc(C(=O)N(Cc2c(Cl)cncc2Cl)C2CC2)c(C)o1 [Example 99] |
| 1.8 | Cc1nn(C)cc1C(=O)N(Cc1c(Cl)cncc1Cl)C1CC1 [Example 100] |
| 2.87 | Cc1ccoc1C(=O)N(Cc1c(Cl)cncc1Cl)C1CC1 [Example 101] |
| 2.01 | Cc1nn(C)c(F)c1C(=O)N(Cc1c(Cl)cncc1Cl)C1CC1 [Example 102] |
| 1.88 | Cn1cc(C(=O)N(Cc2c(Cl)cncc2Cl)C2CC2)c(C(F)F)n1 [Example 103] |
| 2.93 | Cn1cc(C(=S)N(Cc2c(Cl)cncc2Cl)C2CC2)c(C(F)F)n1 [Example 104] |
| 2.04 | Cc1ncoc1C(=O)N(Cc1c(Cl)cncc1Cl)C1CC1 [Example 105] |
| 2.4 | Cc1cc(C(=O)N(Cc2c(Cl)cncc2Cl)C2CC2)no1 [Example 106] |
| 2 | Cc1cc(C(=O)N(Cc2c(Cl)cncc2Cl)C2CC2)nn1C [Example 107] |
| 1.18 | COc1ccnc(CN(C(=O)c2cn(C)nc2C(F)(F)F)C2CC2)c1OC [Example 108] |
| 1.47 | COc1ccnc(CN(C(=O)c2ccsc2I)C2CC2)c1OC [Example 109] |
| 1.2 | COc1ccnc(CN(C(=O)c2sc(C)nc2C(F)F)C2CC2)c1OC [Example 110] |
| 1.44 | COc1ccnc(CN(C(=O)c2nn(C)nc2C(F)(F)F)C2CC2)c1OC [Example 111] |
| 1.32 | COc1ccnc(CN(C(=O)c2cn(C)cc2C(F)(F)F)C2CC2)c1OC [Example 112] |

| SMILES | logP |
| --- | --- |
| Cc1nn(C)cc1C(=O)N(C1CC1)C(C)c1cccnc1Cl (racemic) [Example 78] | 1.58 |
| CC(c1cccnc1Cl)N(C(=O)c1cn(C)nc1C(F)F)C1CC1 (racemic) [Example 81] | 1.88 |
| Cc1cc(C(=O)N(C2CC2)C(C)c2cccnc2Cl)no1 (racemic) [Example 83] | 2.07 |
| Cc1cc(C(=O)N(C2CC2)C(C)c2cccnc2Cl)nn1C (racemic) [Example 84] | 1.78 |
| Cn1cc(C(=O)N(Cc2ccncc2)C2CC2)c(C(F)(F)F)n1 [Example 11] | 0.59 |
| Cc1nc(C(F)(F)F)c(C(=O)N(Cc2ccncc2)C2CC2)s1 [Example 13] | 0.93 |
| Cc1nc(C(F)F)c(C(=O)N(Cc2ccncc2)C2CC2)s1 [Example 14] | 0.58 |
| Cn1nc(C(=O)N(Cc2ccncc2)C2CC2)c(C(F)(F)F)n1 [Example 15] | 1.03 |
| Cn1cc(C(=O)N(Cc2ccncc2)C2CC2)c(C(F)(F)F)c1 [Example 16] | 0.99 |
| CCC(c1ccncc1)N(C(=O)c1cn(C)nc1C(F)F)C1CC1 (stereo not shown) [Example 18] | 1.79 |
| Cn1cc(C(=O)N(Cc2ccc(Cl)nc2)C2CC2)c(C(F)(F)F)n1 [Example 65] | 2.02 |
| O=C(c1ccsc1I)N(Cc1ccc(Cl)nc1)C1CC1 [Example 66] | 2.67 |
| Cn1cc(C(=O)N(Cc2ccc(Cl)nc2)C2CC2)c(C(F)F)n1 [Example 72] | 1.97 |
| Cn1cc(C(=S)N(Cc2ccc(Cl)nc2)C2CC2)c(C(F)F)n1 [Example 73] | 2.58 |
| COc1nn(C)cc1C(=O)N(Cc1ccc(Cl)nc1)C1CC1 [Example 74] | 1.56 |

Same assay, conditions: reversed-phase HPLC column (C18), C18, 40° C., 0.1% aqueous formic acid and acetonitrile, gradient 10% to 90% acetonitrile

| chromatographic logP | SMILES |
| --- | --- |
| 0.92 | CCC(c1ccncc1)N(C(=O)c1c(C)nn(C)c1F)C1CC1 (stereo not shown) [Example 17, N-cyclopropyl-N-[1-pyridin-4-yl-propyl]-5-fluoro-1,3-dimethyl-1H-pyrazole-4-carboxamide] |
| 1.65 | COc1ccnc(CN(C(=O)c2c(C)nn(C)c2F)C2CC2)c1OC [Example 113, N-cyclopropyl-N-[(3,4-dimethoxypyridin-2-yl)methyl]-5-fluoro-1,3-dimethyl-1H-pyrazole-4-carboxamide] |
